In assay [1] the target is T1, human mineralocorticoid receptor (hMR) (Homo sapiens, UniProt P08235).
T1 sequence (P08235 1-984): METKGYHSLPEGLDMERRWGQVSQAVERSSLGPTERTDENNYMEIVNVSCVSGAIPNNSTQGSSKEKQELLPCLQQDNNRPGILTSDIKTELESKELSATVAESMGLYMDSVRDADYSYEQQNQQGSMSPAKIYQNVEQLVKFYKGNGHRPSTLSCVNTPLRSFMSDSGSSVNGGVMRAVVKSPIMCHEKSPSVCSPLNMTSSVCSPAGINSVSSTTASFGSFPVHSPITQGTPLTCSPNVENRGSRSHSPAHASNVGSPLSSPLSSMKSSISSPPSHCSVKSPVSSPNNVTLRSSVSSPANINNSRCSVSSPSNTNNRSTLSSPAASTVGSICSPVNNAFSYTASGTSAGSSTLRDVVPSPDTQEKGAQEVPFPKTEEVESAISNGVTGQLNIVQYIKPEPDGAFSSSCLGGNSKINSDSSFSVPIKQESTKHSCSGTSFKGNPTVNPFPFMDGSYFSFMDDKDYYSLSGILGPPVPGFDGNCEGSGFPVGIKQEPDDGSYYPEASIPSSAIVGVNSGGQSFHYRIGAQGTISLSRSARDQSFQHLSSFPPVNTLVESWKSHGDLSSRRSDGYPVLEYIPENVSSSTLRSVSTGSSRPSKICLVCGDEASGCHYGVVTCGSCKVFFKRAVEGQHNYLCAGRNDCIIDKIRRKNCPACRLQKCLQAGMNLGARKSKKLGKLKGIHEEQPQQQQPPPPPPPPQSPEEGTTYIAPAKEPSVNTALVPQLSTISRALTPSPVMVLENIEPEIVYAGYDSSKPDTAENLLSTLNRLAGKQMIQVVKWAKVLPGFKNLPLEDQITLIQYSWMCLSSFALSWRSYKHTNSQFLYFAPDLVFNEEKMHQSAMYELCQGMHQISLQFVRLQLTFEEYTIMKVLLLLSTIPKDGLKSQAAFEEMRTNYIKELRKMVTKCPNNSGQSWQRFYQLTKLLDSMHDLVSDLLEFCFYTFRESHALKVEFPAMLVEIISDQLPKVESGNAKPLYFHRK
The experiment in a line: hMR cotransfection assay (potency ratio to hPR). It is filed as cell-based. The note with it: receptor-selectivity potency ratio, cotransfection assays.
Procedure: Antagonist efficacy was determined as a function (%) of maximal inhibition of a reference agonist at EC50 concentration. All the cotransfection experiments were carried out in 96-well plates by automation (Beckman Biomomek automated workstation).

A further assay concerns the target T2, hPR (Homo sapiens, UniProt P06401).
T2 sequence (P06401 679-933 limits assumed): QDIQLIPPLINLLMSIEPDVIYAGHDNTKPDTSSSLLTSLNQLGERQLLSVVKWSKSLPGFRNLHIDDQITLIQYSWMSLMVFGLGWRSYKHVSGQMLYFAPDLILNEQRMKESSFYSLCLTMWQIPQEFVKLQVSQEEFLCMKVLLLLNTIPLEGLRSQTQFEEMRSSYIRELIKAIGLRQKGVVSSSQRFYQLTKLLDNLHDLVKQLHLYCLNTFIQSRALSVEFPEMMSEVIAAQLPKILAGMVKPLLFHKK
The assay is described as follows: T47D alkaline phosphatase assay, antagonist mode. It is filed as cell-based. The settings on record: T47D human breast cancer cells; for Emax: read-out: hPR Antagonists T47D Cells Eff. (%); for IC50: read-out: hPR Antagonists T47D Cells IC50.

The next assay concerns the target T3, hPR-A (Homo sapiens, UniProt P06401).
T3 sequence (P06401 1-769 isoform P06401-2): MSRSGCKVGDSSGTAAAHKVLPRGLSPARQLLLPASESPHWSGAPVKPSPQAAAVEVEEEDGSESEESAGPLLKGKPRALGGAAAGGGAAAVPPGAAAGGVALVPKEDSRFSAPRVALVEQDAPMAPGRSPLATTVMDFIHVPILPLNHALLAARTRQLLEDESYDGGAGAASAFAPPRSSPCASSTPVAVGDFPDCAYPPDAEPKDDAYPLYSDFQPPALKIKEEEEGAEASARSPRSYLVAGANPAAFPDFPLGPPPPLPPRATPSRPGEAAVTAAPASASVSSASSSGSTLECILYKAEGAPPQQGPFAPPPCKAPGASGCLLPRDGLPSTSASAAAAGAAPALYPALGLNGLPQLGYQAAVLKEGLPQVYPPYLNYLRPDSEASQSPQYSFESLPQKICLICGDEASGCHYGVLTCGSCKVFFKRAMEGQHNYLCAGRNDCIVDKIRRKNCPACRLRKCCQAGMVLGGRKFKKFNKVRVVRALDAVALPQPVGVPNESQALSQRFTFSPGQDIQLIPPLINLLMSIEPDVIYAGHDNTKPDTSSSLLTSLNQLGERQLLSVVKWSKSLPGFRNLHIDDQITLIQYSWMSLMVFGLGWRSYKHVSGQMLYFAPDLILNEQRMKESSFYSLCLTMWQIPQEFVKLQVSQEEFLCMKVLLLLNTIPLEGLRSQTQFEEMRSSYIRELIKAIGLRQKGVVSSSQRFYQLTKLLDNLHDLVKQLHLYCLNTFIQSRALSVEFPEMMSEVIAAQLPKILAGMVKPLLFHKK
The experiment in a line: Receptor competitive binding assay. The note with it: read-out: PR binding Ki.

Structures are written as SMILES.

For orientation: IC50 means the concentration needed to halve the response being measured. The term Ki denotes a dissociation constant, usually derived from enzyme kinetics or from competition with a known ligand.

Consider `CC1=CC(C)(C)Nc2ccc3c(c21)C(c1ccccc1)Oc1c(F)cc(F)cc1-3` (racemic) [Compound 33, (±)-7,9-difluoro-5-phenyl-1,2-dihydro-2,2,4-trimethyl-5H-chromeno[3,4-f]quinoline], for which the “hMR EC50 or IC50/hPR EC50” value in assay [1] is listed as over 1000. Besides, at hPR, the Emax was under 20% and the IC50 was over 10000 nM. The inhibition constant (Ki) on hPR-A stood at 2.7 nM.

Regarding `CC1=CC(C)(C)Nc2ccc3c(c21)C(c1cccc(C)c1)Oc1c(F)cc(F)cc1-3` (racemic) [Compound 34, (±)-7,9-difluoro-5-(3-methylphenyl)-1,2-dihydro-2,2,4-trimethyl-5H-chromeno[3,4-f]quinoline], the “hMR EC50 or IC50/hPR EC50” value in assay [1] is given as over 1000. Also, at hPR, the Emax came to 47% and the IC50 is 565 nM. For the same compound, at hPR-A, the Ki was 2.5 nM.

For the compound `CC1=CC(C)(C)Nc2ccc3c(c21)C(c1ccc(Cl)c(C)c1)Oc1c(F)cc(F)cc1-3` (racemic) [Compound 37, (±)-7,9-difluoro-5-(4-chloro-3-methylphenyl)-1,2-dihydro-2,2,4-trimethyl-5H-chromeno[3,4-f]quinoline], the “hMR EC50 or IC50/hPR EC50” value in assay [1] is recorded as over 1000. Besides, on hPR, the Emax was 56% and the IC50 was found to be 150 nM. In addition, the Ki at hPR-A was determined as 2.2 nM.

As to `CC1=CC(C)(C)Nc2ccc3c(c21)C(c1cccc(Cl)c1)Oc1c(F)cc(F)cc1-3` (racemic) [Compound 41, (±)-7,9-difluoro-5-(3-chlorophenyl)-1,2-dihydro-2,2,4-trimethyl-5H-chromeno[3,4-f]quinoline], the “hMR EC50 or IC50/hPR EC50” value in assay [1] stood at 905. On hPR, the Emax is 50% and the IC50 came out at 135 nM. At hPR-A, the Ki turned out to be 2.8 nM.

On to `CC1=CC(C)(C)Nc2ccc3c(c21)C(c1cc2ccccc2s1)Oc1c(F)cc(F)cc1-3` (racemic) [Compound 63, (±)-7,9-difluoro-5-(benzo[b]thien-2-yl)-1,2-dihydro-2,2,4-trimethyl-5H-chromeno[3,4-f]quinoline], for which the “hMR EC50 or IC50/hPR EC50” value in assay [1] is listed as over 1000. At hPR, the Emax is 49% and the IC50 amounted to 490 nM. For the same compound, on hPR-A, the Ki came to 6.5 nM.

Turning to `CC#CC1Oc2c(F)cc(F)cc2-c2ccc3c(c21)C(C)=CC(C)(C)N3` (racemic) [Compound 74, (±)-7,9-difluoro-5-(1-propynyl)-1,2-dihydro-2,2,4-trimethyl-5H-chromeno[3,4-f]quinoline], the “hMR EC50 or IC50/hPR EC50” value in assay [1] was over 1000. In addition, at hPR, the Emax stood at 40% and the IC50 is 53 nM. The Ki at hPR-A amounted to 3.5 nM.

Turning to `CC1=CC(C)(C)Nc2ccc3c(c21)/C(=C/c1ccccc1)Oc1c(F)cc(F)cc1-3` [Compound 10, 7,9-difluoro-5(Z)-benzylidene-1,2-dihydro-2,2,4-trimethyl-5H-chromeno[3,4-f]quinoline], the “hMR EC50 or IC50/hPR EC50” value in assay [1] is over 1000. At hPR, the Emax was 49% and the IC50 is 97 nM. In addition, at hPR-A, the Ki stood at 6.8 nM.

`CC1=CC(C)(C)Nc2ccc3c(c21)/C(=C/c1ccncc1)Oc1c(F)cc(F)cc1-3` [Compound 14, 7,9-difluoro-5(Z)-(4-picolylidene)-1,2-dihydro-2,2,4-trimethyl-5H-chromeno[3,4-f]quinoline]: in assay [1], the “hMR EC50 or IC50/hPR EC50” value was over 1000. In addition, on hPR, the Emax came out at 44% and the IC50 amounted to 116 nM. For the same compound, the Ki at hPR-A worked out at 6 nM.

For `CC1=CC(C)(C)Nc2ccc3c(c21)/C(=C/c1cccc(F)c1)Oc1c(F)cc(F)cc1-3` [Compound 15, 7,9-difluoro-5(Z)-(3-fluorobenzylidene)-1,2-dihydro-2,2,4-trimethyl-5H-chromeno[3,4-f]quinoline], the “hMR EC50 or IC50/hPR EC50” value in assay [1] is over 1000. On hPR, the Emax is 52% and the IC50 was 711 nM. Moreover, at hPR-A, the Ki is 9.7 nM.

Turning to `CC1=CC(C)(C)Nc2ccc3c(c21)/C(=C/c1cc(F)ccc1F)Oc1c(F)cc(F)cc1-3` [Compound 17, 7,9-difluoro-5(Z)-(2,5-difluorobenzylidene)-1,2-dihydro-2,2,4-trimethyl-5H-chromeno[3,4-f]quinoline], the “hMR EC50 or IC50/hPR EC50” value in assay [1] is recorded as over 1000. Besides, at hPR, the Emax is 42% and the IC50 was determined as 389 nM. Also, on hPR-A, the Ki is 9.5 nM.

Turning to `COc1ccccc1/C=C1\Oc2c(F)cc(F)cc2-c2ccc3c(c21)C(C)=CC(C)(C)N3` [Compound 18, 7,9-difluoro-5(Z)-(2-methoxybenzylidene)-1,2-dihydro-2,2,4-trimethyl-5H-chromeno[3,4-f]quinoline], the “hMR EC50 or IC50/hPR EC50” value in assay [1] is over 1000. On hPR, the Emax was determined as 58% and the IC50 came out at 55 nM. Further, the Ki at hPR-A was determined as 3.9 nM.

Consider `CC1=CC(C)(C)Nc2ccc3c(c21)/C(=C/c1cc(F)ccc1C)Oc1c(F)cc(F)cc1-3` [Compound 19, 7,9-difluoro-5(Z)-(2-methyl-5-fluorobenzylidene)-1,2-dihydro-2,2,4-trimethyl-5H-chromeno[3,4-f]quinoline], for which the “hMR EC50 or IC50/hPR EC50” value in assay [1] was over 1000. Further, on hPR, the Emax turned out to be 35% and the IC50 is 360 nM. Also, the Ki on hPR-A was 8.5 nM.

As to `CC1=CC(C)(C)Nc2ccc3c(c21)/C(=C/c1ccncc1C)Oc1c(F)cc(F)cc1-3` [Compound 20, 7,9-difluoro-5(Z)-(3-methyl-4-picolylidene)-1,2-dihydro-2,2,4-trimethyl-5H-chromeno[3,4-f]quinoline], the “hMR EC50 or IC50/hPR EC50” value in assay [1] was over 1000. On hPR, the Emax was 59% and the half-inhibitory concentration (IC50) is 170 nM. The Ki at hPR-A is 2.9 nM.

With `COc1ccc(F)cc1/C=C1\Oc2c(F)cc(F)cc2-c2ccc3c(c21)C(C)=CC(C)(C)N3` [Compound 26, 7,9-difluoro-5(Z)-(2-methoxy-5-fluorobenzylidene)-1,2-dihydro-2,2,4-trimethyl-5H-chromeno[3,4-f]quinoline], the “hMR EC50 or IC50/hPR EC50” value in assay [1] is recorded as over 1000. In addition, at hPR, the Emax was determined as 46% and the IC50 is 610 nM. The Ki on hPR-A was found to be 9 nM.

With `CC1=CC(C)(C)Nc2ccc3c(c21)/C(=C/Br)Oc1c(F)cc(F)cc1-3` [Compound 29, 7,9-difluoro-5(Z)-bromomethylidene-1,2-dihydro-2,2,4-trimethyl-5H-chromeno[3,4-f]quinoline], in assay [1], the “hMR EC50 or IC50/hPR EC50” value is recorded as over 1000. Moreover, on hPR, the Emax is 40% and the IC50 was determined as 170 nM. Further, the Ki on hPR-A was 7 nM.

With `CC1=CC(C)(C)Nc2ccc3c(c21)/C(=C/c1ccsc1)Oc1c(F)cc(F)cc1-3` [Compound 30, 7,9-difluoro-5(Z)-(3-thienylmethylidene)-1,2-dihydro-2,2,4-trimethyl-5H-chromeno[3,4-f]quinoline], the “hMR EC50 or IC50/hPR EC50” value in assay [1] is over 1000. At hPR, the Emax is 44% and the IC50 stood at 840 nM. Besides, the Ki at hPR-A came to 4.5 nM.
